Values after ≈ are worked out from the molar mass of the structure shown. Values joined by “and” are separate entries in the source; they are usually repeats but may differ in a detail not shown here. Equal entries are not always repeated.
Columns and labels:
[1] = Lethality of peptide alone in mice; assay type: in vivo
[2] = tested on: Klebsiella pneumoniae ATCC 13883; assay: MIC against Gram-negative bacteria; assay type: cell-based
Source text: (§1) Bacteria included the Bort strain of E. coli (Bortolussi, et al., Inf. Immun., 25:293, 1979) that was originally derived from a case of neonatal meningitis, and which is therefore considered a relevant pathogenic strain to study, and the 0111:B4 strain of E. coli (kindly provided by Dr. D. Morrison) which is a standard source of endotoxin. (Kelly, et al., Inf. Immun., 59:4491, 1991). In addition, P. aeruginosa PA01 strain H103, P. aeruginosa M2, P. aeruginosa K799, Eschericha coli UB 1005, Enterobacter cloacae 218S, Salmonella typhimurium MS7953s, Klebsiella pneumoniae ATCC 13883, Xanthomonas maltophilia ATCC 13637, and Acinetobacter calcoacetious 8193 were employed. LPS was obtained from E. coli Bort by the technique of Westphal and Jann, (Westphal, et al., Acad. Press, Inc. NY., 5:83) and from P. aeruginosa H103 by the method of Darveau and Hancock, (Darveau, et al., J. Bacteriol, 155:831, […]). E. coli 0111:B4 LPS was purchased from Sigma.

[3] = tested on: Xanthomonas maltophilia ATCC 13637; assay: MIC against Gram-negative bacteria; assay type: cell-based
Source text: as §1

[4] = tested on: Acinetobacter calcoaceticus 8193; assay: MIC against Gram-negative bacteria; assay type: cell-based
Source text: as §1

[5] = tested on: TNF induced by viable bacteria in RAW 264.7 cells; assay: TNF induction in RAW 264.7 cells by intact bacteria / secreted LPS-protein complexes; assay type: cell-based, murine; conditions: for Unit of TNF induced / Unit of TNF induced (% of control): 20 μg of peptide
Protocol: After an overnight incubation, the media was aspirated from all the wells. 100 μl of Lipopolysaccharide (LPS) was added at 100 ng/100 μl. CEME or CEMA was added at the desired concentration/100 μl to specified wells. […] The plates were then incubated for six hours at 37° C., 5% CO2. The supernatant was then removed from the wells and stored overnight at 4° C. For those wells in which whole bacteria were added directly to the wells, the supernatant was centrifuged in 0.2 μm filter eppendorf tubes for 5 minutes.
In intact cell induction experiments, 10^6 E. coli Bort cells induced 11,967-14,805 Units of TNF per ml in RAW cells.
To examine effects on whole bacterium induction of TNF, bacteria, grown in Luria broth overnight (approximately 1×10^8 /ml) and diluted to […] organisms per ml, and RAW 264.7 cells were each added to separate compartments of a transwell diffusion chamber, which contained a 0.2 μm membrane filter separating the two compartments. Peptides were added, when appropriate, to the bacterium-containing compartment at a final concentration of 20 μg/ml. TNF levels were measured after 6 hours of incubation at 37° C. in 5% CO2. All assays were performed three times with similar results.
(§2) TNF was measured in cell culture supernatants and mouse serum on the basis of cytoxicity for L929 fibroblast cell. […] TNF activity was expressed in units as the reciprocal of the dilution of TNF that caused 50% cytotoxicity of L929 cells, as computed using the ELISA+program (Meddata, Inc., New York, N.Y.). In our hands one unit of TNF corresponded to 62.5 pg/ml of recombinant murine TNF (Genzyme Corp.).
In man and animal infections, LPS is probably not released as a purified molecule, but rather in association with other bacterial cell components. To mimic this situation, a model system was employed in which the LPS-protein complexes that are naturally released from bacteria were used as a stimulus to induce TNF production in RAW 264.7 cells. Viable cells of E. coli Bort and 0111:B4 or P. aeruginosa H103 were incubated in a transwell filter unit in which a 0.2 μm membrane filter separated the intact bacteria from the compartment containing the RAW 264.7 cells. […] Addition of 20 μg/ml of peptide to 10^5, 10^6, and 10^7 viable to E. coli 0111:B4 (Table 11) and Bort cells reduced the TNF levels by 90%-96%.

[6] = tested on: LPS-induced circulating TNF; assay: Circulating TNF response to LPS in galactosamine-sensitized mice; assay type: in vivo
Protocol: With a challenge dose of 10 μg or E. coli 0111:B4 LPS, 100% of control mice (i.e., no cationic peptide) were killed. […] Consistent with its improved ability to bind LPS, CEMA was more protective resulting in 60%, 75%, and 78% survival when given to mice at doses of 50 μg, 100 μg, and 200 μg respectively. […] Thirty minutes later, the mice were sacrificed and the blood was taken and centrifuged to separate the serum which was used in the cell cytotoxic L929 assay. […] Such suppression of TNF levels in the animals injected with Dgal, CEMA, and LPS was maintained for up to 2 hours.
as §2
Mice are naturally resistant to LPS. […] Endotoxic shock was induced by intraperitoneal injection of 10 or 20 μg of E. coli 0111:B4 LPS in phosphate-buffered saline (PBS), pH 7.2 into galactosamine-sensitized 8-10 week old female CD-1 mice (Galanos, C., supra; Freudenberg, M. A., Inf. Immun., 51:891, 1986). In experiments involving peptides, 50-200 μg in 100 μl sterile water injected at separate intraperitoneal sites immediately before or after LPS injection. In survival experiments, survival was monitored at 24 to 48 hours post injection. In experiments measuring TNF, blood was withdrawn by cardiac puncture at timed intervals up to 8 hours after the injections and allowed to clot prior to measurement of TNF in the serum.
To examine if the peptides were exerting their effects in animals by suppressing TNF induction, TNF was followed in response to injection of 10 μg of E. Coli 0111:B4 into galactosamine treated CD-1 mice. […] At the time points shown, blood was taken and TNF measured in the L929 cytotoxicity assay. […]

[7] = 10^5 viable E. coli 0111:B4 cells
[8] = 10^6 viable E. coli 0111:B4 cells
[9] = 10^7 viable E. coli 0111:B4 cells

CC[C@H](C)[C@H](NC(=O)CNC(=O)[C@@H](NC(=O)[C@H](CCCCN)NC(=O)[C@H](CCCCN)NC(=O)[C@H](Cc1ccccc1)NC(=O)[C@H](CC(C)C)NC(=O)[C@H](CCCCN)NC(=O)[C@H](Cc1c[nH]c2ccccc12)NC(=O)[C@@H](N)CCCCN)[C@@H](C)CC)C(=O)NCC(=O)N[C@@H](C)C(=O)N[C@H](C(=O)N[C@@H](CC(C)C)C(=O)N[C@@H](CCCCN)C(=O)N[C@H](C(=O)N[C@@H](CC(C)C)C(=O)N[C@H](C(=O)N[C@H](C(=O)NCC(=O)N[C@@H](CC(C)C)C(=O)N1CCC[C@H]1C(=O)N[C@@H](C)C(=O)N[C@@H](CC(C)C)C(=O)N[C@@H](CCCCN)C(=O)N[C@@H](CC(C)C)C(=O)N[C@H](C(=O)N[C@@H](CCCCN)C(=O)O)[C@@H](C)O)[C@@H](C)O)[C@@H](C)O)C(C)C)C(C)C [CEMA]
survival of mice given peptide alone ([1]; 200 μg (8.7 mg/kg) alone): survived | % Mortality ([1]; no LPS, peptide 200 ug): 0% | dead/total ([1]; no LPS, peptide 200 ug): 0/5 | MIC [2]: 12 µg/mL (≈ 3.91 µM) | MIC [3]: 12 µg/mL (≈ 3.91 µM) | MIC [4]: 1 µg/mL (≈ 0.326 µM) | reduction in TNF levels ([5]; 20 μg of CEMA, 10^6 E. coli Bort cells, two independent experiments): 96% and 97% | reduction of TNF induction ([5]; 20 μg/ml CEMA, 10^6 viable P. aeruginosa): 96% | Unit of TNF induced [5, 7]: 552 ± 61 units/ml | Unit of TNF induced (% of control) [5, 7]: 4.5% | Unit of TNF induced [5, 8]: 1892 ± 1370 units/ml | Unit of TNF induced (% of control) [5, 8]: 6.0% | Unit of TNF induced [5, 9]: 4126 ± 3890 units/ml | Unit of TNF induced (% of control) [5, 9]: 8.5% | reduction of serum TNF levels ([6]; 200 μg CEMA injected immediately after 10 μg E. coli 0111:B4 LPS): 89% | blood levels of TNF ([6]; 200 μg CEMA with 10 μg LPS and Dgal, at 30 minutes): 11-16 U/ml | duration of suppression of TNF levels ([6]; animals injected with Dgal, CEMA, and LPS): up to 2 hours

— patent US5688767A, “Treatment of endotoxin-associated disorders with cationic peptides” (priority 1996, dated 1997)
